78 test systems from the supplement of paper PMC10784567 can be followed below.

± gives the standard deviation of the averaged measurements.

As usually defined, the absolute IC50 is the concentration giving 50% inhibition relative to the control.

Compound in the test: C=C1C[C@H]2C=Nc3cc(OCCCCCOc4cc5c(cc4OC)C(=O)N4CC(=C)C[C@H]4C=N5)c(OC)cc3C(=O)N2C1 [SG2057]
The experiment in a line: absolute IC50 (cell viability, CellTiter-Glo); higher = less potent. To be noted: treatment time: 3 days. The protocol: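 Large cancer cell line panel screens in 384-well plates. Cells were treated for 3 days with a 9-point dose titration of the free PBD dimer SG2057; viability was read with CellTiter-Glo. Absolute IC50 came from a four-parameter Hill fit normalised to the median of vehicle (DMSO) wells. Several independent screens (projects) per cell line are averaged; values in µM, lowest-dose floor about 1.524e-5 µM.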
On the technique in general: ATP-based viability assays read luminescence as a measure of living cells.
HCC827: the “absolute IC50” value was determined as 2.16 ± 4.3 nM.
Take ASH-3: the “absolute IC50” value stood at 0.925 nM.
COV504: the “absolute IC50” value came to 3.76 ± 4 nM.
With T84 the figure was 2.92 ± 2.4 nM.
With C32TG the figure was 0.2 nM.
As to NCI-H226, the “absolute IC50” value came out at 1.27 ± 2.5 nM.
The same measure for COLO 829: 0.32 ± 0.18 nM; for Pfeiffer: 1.21 ± 2 nM.
With PA-TU-8988S the figure was 52.1 nM; with SK-N-DZ, 5.04 nM.
In the case of COV413A, the “absolute IC50” value came to 2.34 nM.
The same measure for G-401: 0.305 ± 0.16 nM; for MKN-45: 1.08 ± 0.44 nM.
With HEC-6 the figure was 0.536 nM; with KYSE-140, 0.496 nM.
The same measure for SH-SY5Y: 0.142 nM; for NCI-H2135: 5.6 nM; for NCI-H1703: 0.36 ± 0.39 nM.
As to HCC597, the “absolute IC50” value stood at 6.01 nM.
The same measure for 1624-17095 (Tumor C): 0.777 nM.
As to KYSE-410, the “absolute IC50” value is 0.579 nM.
The same measure for S-117: 2.29 nM.
With HEL the figure was 0.067 ± 0.0071 nM.
Consider KMS-12-PE, for which the “absolute IC50” value was 0.433 nM.
The same measure for Panc 10.05: 0.383 ± 0.11 nM; for NCI-H2444: 5.49 nM.
The same measure for TYK-nu: 0.113 ± 0.18 nM; for SNU-1: 1.89 nM; for SISO: 0.153 nM.
The same measure for KARPAS-620: 2.96 nM.
With Hs 695T, the “absolute IC50” value amounted to 0.547 ± 0.21 nM.
With LS1034 the figure was 5.72 nM; with FA9JTOTERT, 0.435 nM.
For HCC515, the “absolute IC50” value is 0.134 ± 0.17 nM.
The same measure for NCI-H838: 1.34 nM; for COR-L47: 4.01 nM; for PE/CA-PJ15: 0.216 nM.
The same measure for LoVo: 1.52 ± 0.43 nM.
With KMRC-20 the figure was 3.45 nM.
For the test system KP-N-YN, the “absolute IC50” value was found to be 0.0159 nM.
As for SK-UT-1B, the “absolute IC50” value is less than 0.0152 nM.
For 4498-1636 Mel-nBR1, the “absolute IC50” value stood at 0.565 nM.
For the test system KYSE-270, the “absolute IC50” value is 0.409 nM.
As to 1624-17091 (Tumor A), the “absolute IC50” value came to 0.849 nM.
SF539: the “absolute IC50” value came to 0.27 ± 0.54 nM.
In the case of U-87 MG, the “absolute IC50” value was determined as 3.32 nM.
The same measure for MT-3: 0.947 ± 0.64 nM; for NCI-H1944: 1.06 ± 0.29 nM; for KMS-11: 0.761 ± 0.19 nM.
The same measure for CT26.WT: 5.3 nM; for SK-BR-3: 0.69 ± 0.71 nM.
Take HEC-265: the “absolute IC50” value stood at 0.555 nM.
Consider L-363, for which the “absolute IC50” value was 0.384 ± 0.54 nM.
With LCLC-103H the figure was 1.11 ± 1.2 nM; with SUM 52PE, 2.62 ± 1.5 nM; with 501A, 0.378 ± 0.25 nM.
With CHL-1 the figure was 1.39 ± 1.1 nM.
With HCC2279 the figure was 3.55 ± 6.2 nM.
With SJSA-1, the “absolute IC50” value is 0.0954 nM.
In the case of MCF 10A CDH1 -/- (Sigma), the “absolute IC50” value was 2.53 nM.
On to SW 780, for which the “absolute IC50” value stood at 0.754 nM.
The same measure for MHH-ES-1: 0.159 nM; for KARPAS-1106P: 0.158 ± 0.045 nM.
Take KHM-5M: the “absolute IC50” value turned out to be 0.561 nM.
The same measure for RT4: 2.35 nM.
With GOTOP3 the figure was 0.217 nM.
As for SUM 159PT, the “absolute IC50” value worked out at 0.681 nM.
1321N1: the “absolute IC50” value worked out at 0.0321 nM.
Take HCC2885: the “absolute IC50” value amounted to 0.801 nM.
For Hs 683, the “absolute IC50” value turned out to be 0.626 ± 1 nM.
Take LNCaP/Ner: the “absolute IC50” value worked out at 0.0717 nM.
The same measure for A20: less than 0.0152 nM.
Turning to G124, the “absolute IC50” value amounted to 2.54 nM.
Turning to HLF, the “absolute IC50” value is 0.503 ± 0.72 nM.
With KP-2 the figure was 4.15 nM; with DLD-1, 1.01 ± 0.81 nM.
For the test system NCI-H2722, the “absolute IC50” value was 0.343 nM.
Regarding HEC-108, the “absolute IC50” value stood at 1.42 nM.
